Reference: patent US20040038888A1 (priority 2002, published 2004)

Legend:
[1] = test system: subventricular zone NSC; assay: PACAP/BrdU infusion, BrdU labelling of the lateral ventricle wall; assay type: in vivo, mouse; conditions: 600 nM pump concentration, 0.5 μl/hr into the lateral ventricle, 3.5 days, relative to vehicle
Protocol: 10 week old male mice (C57B1/2), maintained on a 12 hr light/dark cycle with food and water ad libidum, were infused in the right lateral ventricle with PACAP38 (Bachem), using a Alzet pump (1007D), for 3,5 days or 7 days at a daily dose of 31 ng/day (600 nM PACAP pump concentration infused at a rate of 0.5 μl/hr). Bromodeoxyuridine (BrdU) (50 mg/ml) was also included in the infusion vehicle (0.9% saline containing 1 mg/ml mouse serum albumin (Sigma)) to enable measurement of proliferation by quantitation of BrdU incorporation in the DNA. The group of infused with either PACAP/BrdU or vehicle/BrdU for 3,5 days and sacrificed at this time point. […]
Brains were cut into 14-μm coronal sections using a cryostat-microtome. […] After 1 hour of washing, the BrdU-antibody complex was detected using 0.05% diaminobenzidine with 0.01% H2O2, and counterstained with Hematoxylin. […]
For all BrdU labelling experiments, three to six sections per animal were analysed. […] The number of BrdU-labelled cells per area of dentate granule cell layer was counted manually. […] BrdU-positive cells were counted along 2×250 micrometer strips of the lateral ventricle wall (see FIG. 18). Area measurements of both the dentate granule cell layer and the “counted” region of the lateral ventricle wall (including the ependymal cell layer and subventricular zone) were made from each slide used for the cell counts. […]

[2] = test system: CREB phosphorylation; assay: Western blot of phosphorylated CREB, adult mouse NSC, non-adherent; assay type: cell-based; conditions: 10 nM PACAP
Protocol: Adult mouse NSC and aHNSC were prepared and cultured as stated in Example 2 (Method A) and Example 1 (Method A). Cultures were exposed to either 10 nM PACAP or EGF (1 nM) and FGF (1 nM) for the times indicated. After treatment, the cells were lysed in lysis buffer, as shown in Patrone et al. (Patrone, Andersson et al. 1999). DNA content was detemined by the use of a Pico Green-kit for ds DNA quantitation of cell extracts. Total protein measurements were performed with Nano Orange-kit. Equal amounts of protein were run on a gradient gel 4-12% Bis-Tris gel (NuPage/Mops buffer) and transferred to a nitrocellulose membrane. Western blot was performed and phosphorylated CREB was labelled using a rabbit anti phospho-CREB (1:1000, Upstate biotechnology), a secondary anti rabbit HRP antibodies (1:10.000). Phosphorylated CREB protein bands (43 kD) were detected using the ECL-kit (Amersham).

For “pituitary adenylate cyclase-activating polypeptide [PACAP]”, the “proliferation in the subventricular zone of the lateral ventricle wall (BrdU-positive cells)” value [1] was “significant increase in proliferation”, the CREB phosphorylation ([2]; 15 min exposure) was “upregulated” and the CREB phosphorylation ([2]; 240 min) was “return to basal levels”.
